Read-outs that look alike come from different tables or passages of the source.
Columns and labels:
[1] = test system: non-depressed patients with GAD; details: for change from baseline in HAM-A total score, observed case analysis: significant
[2] = hypothesis to be tested, compared to paroxetine
[3] = hypothesis to be tested, vs placebo

OCCOCCN1CCN(C2=Nc3ccccc3Sc3ccccc32)CC1 [quetiapine, 11-[4-[2-(2-hydroxyethoxy)ethyl]-1-piperazinyl]-dibenzo[b,f][1,4]thiazepine]
reduction in HAM-A psychic anxiety subscale, observed cases ([1]; Week 2, placebo −3.0): −6.6 | change from baseline in HAM-A total score, observed case analysis ([1]; Week 2, placebo −5.9): −11.1 | reduction in HAM-A psychic anxiety subscale, observed cases ([1]; Week 4, placebo −4.0): −7.8 | change from baseline in HAM-A total score, observed case analysis ([1]; Week 4, placebo −8.6): −13.7 | mean decrease from baseline in HAM-A total score ([1]; baseline to week 6, ITT, LOCF, placebo about 9, difference not significant, mean dose 125 mg/day): about 12 | AIMS, SAS, or BARS scores versus placebo ([1]; in vivo): no statistically significant differences | tolerability ([1]; in vivo): generally well tolerated | patients who discontinued treatment because of AEs ([1]; of 19 in the group): Five | remission rate at endpoint (HAM-A total score ≦7) ([1]; placebo 21.1%, not statistically significant): 42.1% | response rate at endpoint (≧50% reduction in HAM-A total score) ([1]; placebo 36.8%, not statistically significant): 57.9% | reduction from baseline on the CGI-S ([1]; placebo −1.05): −1.37 | reduction from baseline on the Hospital Anxiety and Depression (HAD) anxiety subscale ([1]; placebo −3.16): −3.79 | reduction from baseline on the HAM-A somatic subscale ([1]; placebo −4.4): −5.2 | Change from randomization in the Hamilton Anxiety Scale (HAM-A) total score at Day 57 (patients with GAD; claim to be addressed, primary outcome, vs placebo): more effective | Adverse events of nausea or vomiting (patients with GAD; [2]): lower levels of nausea and | Incidence of withdrawals due to adverse events (patients with GAD; [2]): Quetiapine has similar | Sexual dysfunction: change from randomization in CSFQ total score at Day 57 (patients with GAD; [2]): lower levels of sexual | Somnolence: severity of AEs, time of first instance, withdrawals due to AE of somnolence (patients with GAD; hypothesis to be tested, compared to placebo): generally mild, occurs early in | Change from randomization in HAM-A total score, HAM-A psychic cluster, HAM-A somatic cluster and CGI-S score at Day 4 (patients with GAD; hypothesis to be tested, compared to placebo, Day 4): anti-anxiety effect by Day 4 | Change from randomization in MADRS total score at Day 57 (patients with GAD; hypothesis to be tested, depressive symptoms in GAD, vs placebo): Quetiapine is more effective | Adverse events related to discontinuation; change in Discontinuation-Emergent Signs and Symptoms total score at Day 64 and Day 71 (patients with GAD; hypothesis to be tested, discontinuation symptoms): Quetiapine does not have | Change from normal to Clinically Important in Physical Examinations; Laboratory values; Vital signs; ECGs (patients with GAD; hypothesis to be tested, once daily up to 150 mg/day): 150 mg/day is safe and well | Change from randomization in Q-les-Q Item 15 (Satisfaction with medication) at Day 57 (patients with GAD; hypothesis to be tested, patient satisfaction, vs placebo): Quetiapine is more effective | Change from randomization in Q-les-Q total score and Q-les-Q Item 16 (Overall life satisfaction) at Day 57 (patients with GAD; hypothesis to be tested, quality of life, vs placebo): Quetiapine is more effective | HAM-A Response (decrease from randomization total score of ≧50%) at Day 4 (patients with GAD; hypothesis to be tested, response rate vs placebo, Day 4): Quetiapine has a greater | HAM-A Response (decrease from randomization total score of ≧50%) at Day 57 (patients with GAD; hypothesis to be tested, response rate vs placebo, Day 57): Quetiapine has a greater | Change from randomization in PSQI score and MADRS sleep disturbance factor (Item 4) at Day 57 (patients with GAD; hypothesis to be tested, sleep quality, vs placebo): Quetiapine is superior to | Change from randomization in HAM-A total score, CGI Global Improvement, HAM-A psychic and somatic clusters at Day 57 (patients with GAD; hypothesis to be tested, versus paroxetine): Quetiapine is at least as | Adverse events of nausea or vomiting (patients with GAD; [3]): placebo levels of nausea and | Adverse events related to EPS (including akathisia); change in SAS and BARS scores at Day 57 (patients with GAD; [3]): placebo levels of EPS | HAM-A Remission (HAM-A total score ≦7) at Day 57 (patients with GAD; [3]): Quetiapine is better than | Sexual dysfunction: change from randomization in CSFQ total score at Day 57 (patients with GAD; [3]): placebo levels of sexual | Change from randomization in CGI-S score, CGI-I (much or very much improved), HAM-A psychic and somatic clusters at Day 57 (patients with GAD; hypothesis to be tested, vs placebo, across anxiety symptoms): Quetiapine is more effective
